Article PMC7340670, “Phase I study of TAS-115, a novel oral multi-kinase inhibitor, in patients with advanced solid tumors” (Investigational New Drugs, 2019)
“Also recorded” adds a separate entry of the source. Read-outs that look alike come from different tables or passages of the source.

What was measured:
[1] = Plasma pharmacokinetics in the phase I study; assay type: in vivo, human; details: for half-life / AUC(0-t) / Cmax / Tmax: human, plasma; for half-life: read-out: t1/2 Mean (SD) (converted); for AUC(0-t): read-out: AUC0-24 Mean (SD); for Cmax: read-out: Cmax Mean (SD)
Experimental: Blood samples were collected for plasma PK assessments pre-dosing and at 1, 2, 3, 4, 6, 8, 12, and 24 h after TAS-115 administration on Days 1 and 8 of cycle 1 in part 1, and on Days 1, 8, and 19 of cycle 1 in part 2 (only pre-dosing on Day 8). TAS-115 concentrations were measured by validated liquid chromatography-tandem mass spectrometry. A preliminary assessment of the effect of food on the PK profile was performed. Blood samples after administration under fed and empty stomach conditions were collected from the first six patients in the expansion part. Pharmacokinetic parameters were determined using non-compartmental analyses (Phoenix® WinNonlin® version 6.4; Certara LP, Princeton, NJ, USA).

advanced solid tumors = assay: Antitumor effect by RECIST Version 1.1; assay type: in vivo, human
Experimental: (§1) The secondary objectives were to investigate the PK profile, safety, tolerability, antitumor activity, and pharmacodynamic profile of TAS-115. AEs were graded according to the CTCAE Version 4.03. Response was assessed by radiologic imaging at 6 and 12 weeks from the first dose, and every 12 weeks thereafter. Antitumor effect was evaluated by investigators using Response Evaluation Criteria in Solid Tumors (RECIST) Version 1.1 [17]. If a patient had bone lesions, evaluation was performed using bone scintigraphy and bone scan index (BSI) were calculated by BONENAVI® software (FUJIFILM Toyama Chemical, Co., Ltd., Japan). BSI response was defined as ≥30% reduction in BSI [18]. An exploratory objective was to assess changes in protein levels of soluble MET (sMET), VEGF, and soluble VEGFR2 (sVEGFR2) in plasma, and HGF in serum as pharmacodynamic markers.

bone lesions = assay: Bone scintigraphy / bone scan index (BSI) response; assay type: in vivo, human
Experimental: as §1

soluble VEGFR2 (sVEGFR2) = assay: Pharmacodynamic marker: sVEGFR2 in plasma; assay type: in vivo, human
Experimental: as §1
For pharmacodynamic analyses, blood samples were collected on Days 1 and 22 (before dosing, each) in part 1, and Days 1 (pre-dosing) and 19 (pre- and post 6 h) in part 2 and the expansion part. […]
The planned sample size was up to 90 patients, and it was not based on the formal calculation because of experimental phase I trial. For pharmacodynamics parameters, P values were calculated using the paired t-test for measured values from merged doses. […]

recombinant VEGFR2 = system: recombinant VEGFR2; design: method as in PMID 24140932; details: read-out: IC50 against recombinant VEGFR2; cited from earlier work
192-panel kinase = target: 192-panel kinase; design: method as in PMID 24140932; details: 192-panel kinase assay; read-out: IC50 for 53 (28%) kinases, including MET, AXL, c-kit, Src, PDGFR-alpha and –beta; cited from earlier work
patients = system: patients; design: method as in data on file; details: tablet formulation, ref data on file, cited from earlier work
[2] = system: osteoclast differentiation; design: method as in data on file; details: in vitro; ref data on file; cited from earlier work
[3] = expansion part, 650 mg, six patients, not statistically significant
[4] = oral, 200 mg/day, Part 1, Day 1 (single administration), 200 mg/day, n=3
[5] = oral, 200 mg/day, Part 1, Day 8 (multiple administration), 200 mg/day, n=3
[6] = oral, 300 mg/day, Part 1, Day 1 (single administration), 300 mg/day, n=3
[7] = oral, 300 mg/day, Part 1, Day 8 (multiple administration), 300 mg/day, n=2
[8] = oral, 450 mg/day, Part 1, Day 1 (single administration), 450 mg/day, n=3
[9] = oral, 450 mg/day, Part 1, Day 8 (multiple administration), 450 mg/day, n=3
[10] = oral, 650 mg/day, Expansion part, Empty Stomach, 650 mg/day, n=6
[11] = oral, 650 mg/day, Expansion part, Fed, 650 mg/day, n=6
[12] = oral, 650 mg/day, Part 1, Day 1 (single administration), 650 mg/day, n=6
[13] = oral, 650 mg/day, Part 1, Day 8 (multiple administration), 650 mg/day, n=5
[14] = oral, 650 mg/day, Part 2, Day 1 (single administration), 650 mg/day, n=6
[15] = oral, 650 mg/day, Part 2, Day 19 (multiple administration), 650 mg/day, n=6
[16] = oral, 800 mg/day, Part 1, Day 1 (single administration), 800 mg/day, n=6
[17] = oral, 800 mg/day, Part 1, Day 8 (multiple administration), 800 mg/day, n=6

SMILES: CNC(=O)c1cc2c(Oc3ccc(NC(=S)NC(=O)Cc4ccccc4)cc3F)ccnc2cc1OC [TAS-115]
- dose dependence of AUC0–24 / systemic exposure ([1]; after single administration, part 1): increased almost dose-proportionally; also recorded: increased dose-proportionally over the tested range from 200 mg to 650 mg
- geometric mean ratio (90% CI) of AUC0–24, fed to empty stomach condition [1, 3]: 0.812 (0.414–1.593)
- geometric mean ratio (90% CI) of Cmax, fed to empty stomach condition [1, 3]: 0.545 (0.243–1.224)
- half-life ([1]; oral, 200 mg/day, Part 1, Day 1 (single administration), 200 mg/day, n=2): 15.2 h
- AUC(0-t) [1, 4]: 20000 ng·h/mL
- Cmax [1, 4]: 2490 ng/mL
- Tmax ([1]; oral, 200 mg/day, Part 1, Day 1 (single administration), 200 mg/day, n=3, read-out: tmax Median): 1 h
- AUC(0-t) [1, 5]: 22700 ng·h/mL
- Cmax [1, 5]: 2950 ng/mL
- half-life [1, 5]: 26.6 h
- Tmax ([1]; oral, 200 mg/day, Part 1, Day 8 (multiple administration), 200 mg/day, n=3, read-out: tmax Median): 1 h
- AUC(0-t) [1, 6]: 23200 ng·h/mL
- Cmax [1, 6]: 3500 ng/mL
- half-life [1, 6]: 20.4 h
- Tmax ([1]; oral, 300 mg/day, Part 1, Day 1 (single administration), 300 mg/day, n=3, read-out: tmax Median): 1 h
- AUC(0-t) [1, 7]: 32500 ng·h/mL
- Cmax [1, 7]: 3900 ng/mL
- half-life [1, 7]: 15.9 h
- Tmax ([1]; oral, 300 mg/day, Part 1, Day 8 (multiple administration), 300 mg/day, n=2, read-out: tmax Median): 1.5 h
- AUC(0-t) [1, 8]: 28800 ng·h/mL
- Cmax [1, 8]: 4540 ng/mL
- half-life [1, 8]: 12.6 h
- Tmax ([1]; oral, 450 mg/day, Part 1, Day 1 (single administration), 450 mg/day, n=3, read-out: tmax Median): 1 h
- AUC(0-t) [1, 9]: 37000 ng·h/mL
- Cmax [1, 9]: 4310 ng/mL
- half-life [1, 9]: 11.4 h
- Tmax ([1]; oral, 450 mg/day, Part 1, Day 8 (multiple administration), 450 mg/day, n=3, read-out: tmax Median): 1 h
- AUC(0-t) [1, 10]: 39300 ng·h/mL
- Cmax [1, 10]: 4760 ng/mL
- Tmax ([1]; oral, 650 mg/day, Expansion part, Empty Stomach, 650 mg/day, n=6, read-out: tmax Median): 2 h
- AUC(0-t) [1, 11]: 41700 ng·h/mL
- Cmax [1, 11]: 3900 ng/mL
- Tmax ([1]; oral, 650 mg/day, Expansion part, Fed, 650 mg/day, n=6, read-out: tmax Median): 5 h
- AUC(0-t) [1, 12]: 59700 ng·h/mL
- Cmax [1, 12]: 7700 ng/mL
- half-life [1, 12]: 10.3 h
- Tmax ([1]; oral, 650 mg/day, Part 1, Day 1 (single administration), 650 mg/day, n=6, read-out: tmax Median): 1 h
- half-life ([1]; oral, 650 mg/day, Part 1, Day 8 (multiple administration), 650 mg/day, n=4): 8.7 h
- AUC(0-t) [1, 13]: 54500 ng·h/mL
- Cmax [1, 13]: 5040 ng/mL
- Tmax ([1]; oral, 650 mg/day, Part 1, Day 8 (multiple administration), 650 mg/day, n=5, read-out: tmax Median): 2 h
- half-life ([1]; oral, 650 mg/day, Part 2, Day 1 (single administration), 650 mg/day, n=5): 14.5 h
- AUC(0-t) [1, 14]: 49800 ng·h/mL
- Cmax [1, 14]: 7510 ng/mL
- Tmax ([1]; oral, 650 mg/day, Part 2, Day 1 (single administration), 650 mg/day, n=6, read-out: tmax Median): 1 h
- AUC(0-t) [1, 15]: 56700 ng·h/mL
- Cmax [1, 15]: 7370 ng/mL
- half-life [1, 15]: 16.8 h
- Tmax ([1]; oral, 650 mg/day, Part 2, Day 19 (multiple administration), 650 mg/day, n=6, read-out: tmax Median): 1 h
- AUC(0-t) [1, 16]: 37800 ng·h/mL
- Cmax [1, 16]: 4910 ng/mL
- half-life [1, 16]: 13.7 h
- Tmax ([1]; oral, 800 mg/day, Part 1, Day 1 (single administration), 800 mg/day, n=6, read-out: tmax Median): 1 h
- AUC(0-t) [1, 17]: 44600 ng·h/mL
- Cmax [1, 17]: 5220 ng/mL
- half-life [1, 17]: 12.8 h
- Tmax ([1]; oral, 800 mg/day, Part 1, Day 8 (multiple administration), 800 mg/day, n=6, read-out: tmax Median): 1.5 h
- Tmax ([1]; po, oral administration, across dose levels, read-out: median time to maximum concentration (tmax)): 1 to 2 h
- accumulation ([1]; multiple dosing for 8 days, part 1): no accumulation
- antitumor effect in a patient with bladder cancer with metastases (advanced solid tumors; 650 mg 5-on/2-off discontinued at week 7, after discontinuation without further antitumor treatment): the lung metastatic lesions disappeared
- complete or partial response by RECIST evaluation (advanced solid tumors; all parts): no patients who showed complete or partial response
- minor tumor shrinkage of target lesions (advanced solid tumors; patients determined as having progressive disease (PD)): four patients
- antitumor effect in a patient with CRPC with multiple bone metastases (bone lesions; 650 mg 5-on/2-off): notable improvement was observed in the bone scan
- antitumor effect in a patient with epithelioid sarcoma with multiple metastases (bone lesions; 650 mg 5-on/2-off, 6 weeks after the first administration): marked decrease of hot spots on bone scans and reduction in fluorodesoxyglucose uptake
- BSI response rate (≥30% reduction in BSI) (bone lesions; patients with bone lesions, 14 of 25): 56.0%
- change of VEGFR2 (soluble VEGFR2 (sVEGFR2); 6 h post-dose on Day 19 compared with pre-dose on Day 19, P = .0204): decrease
- marked alterations of sVEGFR2 from Day 1 (soluble VEGFR2 (sVEGFR2); in vivo): not observed
- IC50 (recombinant VEGFR2): 30 nM
- IC50 (192-panel kinase): < 1000 nM
- absorption (patients): saturated between 100 and 1200 mg
- dose-limiting toxicities (DLTs) (patients; ten patients, 100, 200, 400, 800, 1200 mg SID and 400 mg BID): no dose-limiting toxicities (DLTs) were observed
- osteoclast differentiation induced by M-CSF and RANKL [2]: dose-dependent inhibition
